Laboratory results taken from ChEMBL document CHEMBL1201862, “PubChem BioAssay data set” (2004).
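All cell lines were grown in 96-well plates and treated with compound for 48 hours. GI50 is the concentration that inhibits growth by half.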 The source made the active and inactive calls. Rule as the data show it: active = GI50 up to about 1.1 µM and inactive = higher.

Legend:
Assay in all cases: NCI-60 cell line screen, 48 h
SF-268 = tested on: SF-268
SR = tested on: SR
CAKI-1 = tested on: CAKI-1
UACC-257 = tested on: UACC-257
MCF7 = tested on: MCF7
COLO 205 = tested on: COLO 205
SF-539 = tested on: SF-539
786-0 = tested on: 786-0
A498 = tested on: A498
HCT-15 = tested on: HCT-15
OVCAR-3 = tested on: OVCAR-3
SK-MEL-5 = tested on: SK-MEL-5
M14 = tested on: M14
RXF 393 = tested on: RXF 393
SK-OV-3 = tested on: SK-OV-3
NCI-H226 = tested on: NCI-H226
HT-29 = tested on: HT-29
OVCAR-5 = tested on: OVCAR-5
TK-10 = tested on: TK-10
DU-145 = tested on: DU-145

SMILES	GI50 (SF-268)	GI50 (SR)	GI50 (CAKI-1)	GI50 (UACC-257)	GI50 (MCF7)	GI50 (COLO 205)	GI50 (SF-539)	GI50 (786-0)	GI50 (A498)	GI50 (HCT-15) [µM]	GI50 (OVCAR-3)	GI50 (SK-MEL-5)	GI50 (M14)	GI50 (RXF 393)	GI50 (SK-OV-3)	GI50 (NCI-H226)	GI50 (HT-29)	GI50 (OVCAR-5)	GI50 (TK-10)	GI50 (DU-145)
Nc1ccc(-c2ccc(Nc3cc(S(=O)(=O)O)c(N)c4c3C(=O)c3ccccc3C4=O)cc2)c(S(=O)(=O)O)c1	> 100 µM (inactive)	> 100 µM (inactive)	> 100 µM (inactive)	> 100 µM (inactive)	> 100 µM (inactive)	> 100 µM (inactive)	> 100 µM (inactive)	> 100 µM (inactive)	> 100 µM (inactive)	> 100	> 100 µM (inactive)	> 100 µM (inactive)	> 100 µM (inactive)	> 100 µM (inactive)	> 100 µM (inactive)	> 100 µM (inactive)	> 100 µM (inactive)	> 100 µM (inactive)	> 100 µM (inactive)	> 100 µM (inactive)
c1cncc(CNCc2cccnc2)c1	> 100 µM (inactive)	> 100 µM (inactive)	> 100 µM (inactive)	> 100 µM (inactive)	> 100 µM (inactive)	> 100 µM (inactive)	> 100 µM (inactive)	> 100 µM (inactive)	> 100 µM (inactive)	> 100	> 100 µM (inactive)	> 100 µM (inactive)	> 100 µM (inactive)	> 100 µM (inactive)	> 100 µM (inactive)	> 100 µM (inactive)	> 100 µM (inactive)	> 100 µM (inactive)	> 100 µM (inactive)	> 100 µM (inactive)
CCCCOC(=O)N[C@H]1CCc2cc(OC)c(OC)c(OC)c2-c2ccc(SC)c(=O)cc21	< 0.01 µM (active)	< 0.0568 µM (active)	< 0.01 µM (active)	< 0.0286 µM (active)	< 0.01 µM (active)	< 0.01 µM (active)	< 0.01 µM (active)	< 0.01 µM (active)	< 0.01 µM (active)	< 0.01	< 0.01 µM (active)	< 0.01 µM (active)	< 0.01 µM (active)	< 0.031 µM (active)	0.0303 µM (active)	0.0931 µM (active)	< 0.01 µM (active)	0.147 µM (active)	0.198 µM (active)	< 0.01 µM (active)
CC(C)(C)C(=O)C(C#N)C(=O)C(C)(C)C	> 100 µM (inactive)	0.0697 µM (active)	> 100 µM (inactive)	> 100 µM (inactive)	> 100 µM (inactive)	> 100 µM (inactive)	> 100 µM (inactive)	> 100 µM (inactive)	> 100 µM (inactive)	> 100	> 100 µM (inactive)	> 100 µM (inactive)	> 100 µM (inactive)	> 100 µM (inactive)	> 100 µM (inactive)	> 100 µM (inactive)	> 100 µM (inactive)	> 100 µM (inactive)	> 100 µM (inactive)	> 100 µM (inactive)
COc1ccccc1CC(=O)C(O)(C(F)(F)F)C(F)(F)F	> 100 µM (inactive)	> 100 µM (inactive)	> 100 µM (inactive)	> 100 µM (inactive)	> 100 µM (inactive)	> 100 µM (inactive)	> 100 µM (inactive)	> 100 µM (inactive)	> 100 µM (inactive)	> 100	> 100 µM (inactive)	> 100 µM (inactive)	> 100 µM (inactive)	> 100 µM (inactive)	> 100 µM (inactive)	> 100 µM (inactive)	> 100 µM (inactive)	> 100 µM (inactive)	> 100 µM (inactive)	> 100 µM (inactive)
N#CC(C#N)=CNC(=S)c1ccncc1	61.1 µM (inactive)	18.7 µM (inactive)	46.7 µM (inactive)	> 100 µM (inactive)	76.9 µM (inactive)	45.1 µM (inactive)	23.1 µM (inactive)	> 100 µM (inactive)	92.9 µM (inactive)	37.4	0.117 µM (active)	48.4 µM (inactive)	> 100 µM (inactive)	> 100 µM (inactive)	> 100 µM (inactive)	> 100 µM (inactive)	46.9 µM (inactive)	> 100 µM (inactive)	–	> 100 µM (inactive)
CCCCCCCC(=O)OC[n+]1ccc(-c2c(COC(=O)NC(C)C)c(COC(=O)NC(C)C)c3n2CCC3)cc1	25.8 µM (inactive)	5.65 µM (inactive)	18.6 µM (inactive)	70.6 µM (inactive)	30.2 µM (inactive)	48.9 µM (inactive)	23.1 µM (inactive)	27 µM (inactive)	29.9 µM (inactive)	52.4	> 62.7 µM (inactive)	34.8 µM (inactive)	49.8 µM (inactive)	21.1 µM (inactive)	63.1 µM (inactive)	> 78.5 µM (inactive)	42.6 µM (inactive)	> 96.6 µM (inactive)	> 67.5 µM (inactive)	23.4 µM (inactive)
COc1ccc(CCNC(=O)CCCCCO)cc1OC	> 100 µM (inactive)	> 100 µM (inactive)	> 100 µM (inactive)	> 100 µM (inactive)	> 100 µM (inactive)	> 100 µM (inactive)	> 100 µM (inactive)	> 100 µM (inactive)	> 100 µM (inactive)	> 100	> 100 µM (inactive)	> 100 µM (inactive)	> 100 µM (inactive)	> 100 µM (inactive)	> 100 µM (inactive)	> 100 µM (inactive)	> 100 µM (inactive)	> 100 µM (inactive)	> 100 µM (inactive)	> 100 µM (inactive)
C/C(=N/NC(=O)c1ccncc1)c1ccc(NC(=O)C(=O)Nn2c(S)nc3ccccc3c2=O)cc1	> 100 µM (inactive)	> 100 µM (inactive)	> 100 µM (inactive)	> 100 µM (inactive)	> 100 µM (inactive)	> 100 µM (inactive)	> 100 µM (inactive)	> 100 µM (inactive)	> 100 µM (inactive)	> 100	> 100 µM (inactive)	> 100 µM (inactive)	> 100 µM (inactive)	> 100 µM (inactive)	> 100 µM (inactive)	> 100 µM (inactive)	> 100 µM (inactive)	> 100 µM (inactive)	> 100 µM (inactive)	> 100 µM (inactive)
COc1ccccc1NC(=O)C1=C(C)NC(C)=C(C(=O)Nc2ccccc2OC)C1c1ccco1	10.3 µM (inactive)	1.34 µM (inactive)	4.09 µM (inactive)	9.55 µM (inactive)	3.59 µM (inactive)	5.56 µM (inactive)	4.13 µM (inactive)	4.45 µM (inactive)	4.3 µM (inactive)	4.76	2.91 µM (inactive)	3.02 µM (inactive)	4.71 µM (inactive)	2.51 µM (inactive)	7.01 µM (inactive)	7.94 µM (inactive)	3.92 µM (inactive)	39.8 µM (inactive)	19.5 µM (inactive)	21.4 µM (inactive)
Cc1c(/N=C\c2ccc(N(CCC#N)CCC#N)cc2)c(=O)n(-c2ccccc2)n1C	64.6 µM (inactive)	> 100 µM (inactive)	> 100 µM (inactive)	> 100 µM (inactive)	> 63.7 µM (inactive)	> 100 µM (inactive)	31.6 µM (inactive)	24.4 µM (inactive)	69.2 µM (inactive)	> 100	> 90.6 µM (inactive)	> 100 µM (inactive)	92.7 µM (inactive)	24 µM (inactive)	> 100 µM (inactive)	> 100 µM (inactive)	> 100 µM (inactive)	> 100 µM (inactive)	24.1 µM (inactive)	> 100 µM (inactive)
Cc1nc(-n2[nH]c(C)c(CCO)c2=O)[nH]c(=O)c1CCO	> 100 µM (inactive)	> 100 µM (inactive)	> 100 µM (inactive)	> 100 µM (inactive)	> 100 µM (inactive)	> 100 µM (inactive)	> 100 µM (inactive)	> 100 µM (inactive)	93.1 µM (inactive)	> 100	> 100 µM (inactive)	> 100 µM (inactive)	> 100 µM (inactive)	> 100 µM (inactive)	> 100 µM (inactive)	> 100 µM (inactive)	> 100 µM (inactive)	> 10 µM (inactive)	> 100 µM (inactive)	> 100 µM (inactive)
Clc1nc(-c2ccccc2)nc(Cl)c1Cl	11.6 µM (inactive)	2.69 µM (inactive)	3.09 µM (inactive)	14.6 µM (inactive)	8.15 µM (inactive)	10.3 µM (inactive)	18.4 µM (inactive)	8.05 µM (inactive)	17.6 µM (inactive)	7.38	8.38 µM (inactive)	13.4 µM (inactive)	7.14 µM (inactive)	7.85 µM (inactive)	14 µM (inactive)	12.1 µM (inactive)	9.89 µM (inactive)	15.8 µM (inactive)	26.7 µM (inactive)	15.8 µM (inactive)
COc1cc2c(cc1OC)C(OC)N(C)c1c-2ccc2cc3c(cc12)OCO3 (centres undefined)	0.094 µM (active)	0.506 µM (active)	1.98 µM (inactive)	12.1 µM (inactive)	1.24 µM (inactive)	0.733 µM (active)	1.75 µM (inactive)	1.86 µM (inactive)	0.458 µM (active)	40.7	1.5 µM (inactive)	1.8 µM (inactive)	3.3 µM (inactive)	1.91 µM (inactive)	0.916 µM (active)	1.11 µM (active)	1.38 µM (inactive)	1.42 µM (inactive)	6.75 µM (inactive)	2.26 µM (inactive)
